Several values for one entry are separate records, joined by “and”; a condition that tells them apart may be missing. Identical values can stand only once. Entries after “also recorded” stand apart in the source; their conditions may differ.
What was measured:
[1] = GSNO thermal decomposition via UV-Vis absorption spectroscopy; assay type: physicochemical; details: for stabilization effect on GSNO (remaining GSNO after 48 h): 2-day experiment, 0.05 M GSNO in 0.05 M PB with 0.1 M CD derivative, dark, 37° C.; for order of enhancement of GSNO stability (reduced decomposition reactivity) by the host CD: 0.1 M GSNO solution containing 0.1 M CD, pH 7.4, 37° C.
Description: GSNO was synthesized by nitrosation of reduced L-glutathione in acidified nitrite as previously reported.^52 After collecting GSNO precipitates and washing them using cold water and acetone, GSNO powder was vacuum dried for 4 h and stored at −20° C. GSNO powders were dissolved in phosphate buffer (PB) containing the same mole of Na2HPO4 before the pH adjustment. For example, the formal concentration of Na2HPO4 is 0.1 M when the GSNO concentration is 0.1 M. One hundred μM EDTA was always added to each solution before the solution pH was finally adjusted to 7.4 via NaOH. EDTA is a chelating agent to mask Cu^2+, a S-nitrosothiol catalyst that may exist in solvents and chemicals as an impurity.^53 For solutions with reactive agents, BSA, ascorbic acid, or cysteine was added before the pH adjustment. To prepare GSNO-CD solutions, appropriate amounts of CD powders were dissolved into the GSNO solutions prior to the pH adjustment.
Aqueous GSNO solutions were contained in 1.5 mL disposable polystyrene cuvettes. The cuvette was caped and further sealed with parafilm. The concentrations of GSNO during storage at 37° C. or 25° C. in the dark were monitored by a UV-vis spectrophotometer (Go Direct® Fluorescence/UV-VIS Spectrophotometer) at a wavelength of 545 nm. A 4 W LED white light was used as the light source for the photodecomposition experiment at room temperature. The distance between the light source and the cuvettes was approximately 10 cm. All GSNO decomposition experiments were triplicated, and the GSNO concentration was expressed as mean±standard deviation.

[2] = in water; cited from earlier work
fibroblast L929 cells = assay: Cytotoxicity test (MTS assay) of lock-solution-filled silicone tubes; assay type: cell-based, mouse; details: 24-h incubation of L929 cells with silicone tubes filled with the lock solution
Description: L929 murine fibroblast cells were suspended in complete media (DMEM with 1% penicillin/streptomycin and 10% FBS) before being seeded in a 24-well plate at a concentration of 5×10^5 cells per well. After 24 h of incubation, the attached cells in each well were incubated in fresh media containing a sterilized 1-cm silicone tube (HelixMark® 60-011-07) filled with a lock solution with buffer, GSNO, or GSNO-αCD and with both ends sealed. MTS assays were performed following the manufacturer's procedure after an additional 24-h incubation. Absorbance at 490 nm was measured by a Cytation 3 imaging plate reader (Biotek).

Molecule | stabilization effect on GSNO (remaining GSNO after 48 h) [1] | order of enhancement of GSNO stability (reduced decomposition reactivity) by the host CD [1] | also measured
2-hydroxypropyl alpha cyclodextrin [2-hydroxypropyl αCD] | significant stabilization effect | – | –
CC(=O)N[C@H](C(=O)O)C(C)(C)SN=O (racemic) [S-Nitroso-N-acetylpenicillamine] | – | – | aqueous solubility [2]: 2.1 mg/mL and < 0.01 M
CC(O)COC[C@H]1O[C@@H]2O[C@H]3[C@H](O)[C@@H](O)[C@@H](O[C@H]4[C@H](O)[C@@H](O)[C@@H](O[C@H]5[C@H](O)[C@@H](O)[C@@H](O[C@H]6[C@H](O)[C@@H](O)[C@@H](O[C@H]7[C@H](O)[C@@H](O)[C@@H](O[C@H]8[C@H](O)[C@@H](O)[C@@H](O[C@H]1[C@H](O)[C@H]2O)O[C@@H]8COCC(C)O)O[C@@H]7COCC(C)O)O[C@@H]6COCC(C)O)O[C@@H]5COCC(C)O)O[C@@H]4COCC(C)O)O[C@@H]3COCC(C)O (stereo partly drawn) [HP βCD, 2-hydroxypropyl βCD] | – | αCD>γCD>HP βCD | order of enhancement of GSNO stability (reduced decomposition reactivity) by the host CD ([1]; listed as hydroxypropyl βCD): αCD>γCD>hydroxypropyl βCD
OC[C@H]1O[C@@H]2O[C@H]3[C@H](O)[C@@H](O)[C@@H](O[C@H]4[C@H](O)[C@@H](O)[C@@H](O[C@H]5[C@H](O)[C@@H](O)[C@@H](O[C@H]6[C@H](O)[C@@H](O)[C@@H](O[C@H]7[C@H](O)[C@@H](O)[C@@H](O[C@H]1[C@H](O)[C@H]2O)O[C@@H]7CO)O[C@@H]6CO)O[C@@H]5CO)O[C@@H]4CO)O[C@@H]3CO [αCD, alpha cyclodextrin] | best | αCD>γCD>hydroxypropyl βCD; also recorded: αCD>γCD>HP βCD | cytotoxicity / cell viability (MTS) (fibroblast L929 cells): no difference in the cell viability
OC[C@H]1O[C@@H]2O[C@H]3[C@H](O)[C@@H](O)[C@@H](O[C@H]4[C@H](O)[C@@H](O)[C@@H](O[C@H]5[C@H](O)[C@@H](O)[C@@H](O[C@H]6[C@H](O)[C@@H](O)[C@@H](O[C@H]7[C@H](O)[C@@H](O)[C@@H](O[C@H]8[C@H](O)[C@@H](O)[C@@H](O[C@H]9[C@H](O)[C@@H](O)[C@@H](O[C@H]1[C@H](O)[C@H]2O)O[C@@H]9CO)O[C@@H]8CO)O[C@@H]7CO)O[C@@H]6CO)O[C@@H]5CO)O[C@@H]4CO)O[C@@H]3CO [γCD, gamma cyclodextrin] | – | αCD>γCD>hydroxypropyl βCD; also recorded: αCD>γCD>HP βCD | –
methyl alpha cyclodextrin [methyl αCD] | significant stabilization effect | – | –

— patent US20250313653A1, “GUEST/HOST INCLUSION COMPLEXES CONTAINING S-NITROSOGLUTATHIONE AND METHODS OF USE THEREOF” (VIRGINIA COMMONWEALTH UNIVERSITY, priority 2022, published 2025)
